Laboratory results reported in publication PMC12655637, “Design, Synthesis, and Mechanistic Study of Novel Ciprofloxacin/Thiazole Chalcone Hybrids as Potential Anticancer Agents” (Pharmaceuticals, 2025).

Columns and labels:
SF-268 = assay: NCI-60 screening, one-dose (10 µM) and five-dose, SRB; type: cell-based, human; details: five-dose, SF-268
UACC-257 = assay: as above; type: cell-based, human
U251 = assay: as above; type: cell-based, human
HT29 = assay: as above; type: cell-based, human
NCI-H322M = assay: as above; type: cell-based, human
IGROV1 = assay: as above; type: cell-based, human
[1] = system: 60 human cancer cell lines; assay: NCI-60 screening, full panel (mean growth, MID a, ranges over all lines)
CCRF-CEM = assay: NCI-60 screening, one-dose (10 µM) and five-dose, SRB; type: cell-based, human
NCI-H23 = assay: as above; type: cell-based, human
OVCAR-5 = assay: as above; type: cell-based, human; details: five-dose, OVCAR-5
MCF7 = assay: as above; type: cell-based, human
SK-MEL-28 = assay: as above; type: cell-based, human
MALME-3M = assay: as above; type: cell-based, human
HOP-92 = assay: as above; type: cell-based, human
HS 578T = assay: as above; type: cell-based, human
[2] = Homo sapiens, read-out: LC50 (the source's name)
[3] = Homo sapiens, five-dose, UACC-257
[4] = Homo sapiens, U-251, five-dose, U251
[5] = Homo sapiens, HT-29, five-dose, HT29
[6] = Homo sapiens, IGROV-1, five-dose, IGROV1
[7] = Homo sapiens, five-dose, read-out: LC50 (the source's name)
[8] = Homo sapiens, five-dose, NCI-H23
[9] = Homo sapiens, five-dose, SK-MEL-28
[10] = Homo sapiens, five-dose, HOP-92

Cc1nc(SCC(=O)N2CCN(c3cc4c(cc3F)c(=O)c(C(=O)O)cn4C3CC3)CC2)sc1C(=O)/C=C/c1cccc(Cl)c1 [Compound 4b, (E)-7-(4-(2-((5-(3-(3-Chlorophenyl)acryloyl)-4-methylthiazol-2-yl)thio)acetyl)piperazin-1-yl)-1-cyclopropyl-6-fluoro-4-oxo-1,4-dihydroquinoline-3-carboxylic Acid]
CC50 (SF-268; [2]): > 100 µM | TGI (SF-268): 93.3 µM | activity at 10 µM (UACC-257; Homo sapiens, 10 μM, UACC-257, Melanoma, read-out: Growth percentage): 77.9% | GI50 (UACC-257; [3]): > 100 µM | IC50 (UACC-257; [3]): > 100 µM | CC50 (UACC-257; Homo sapiens, five-dose, UACC-257, read-out: LC50 (the source's name)): > 100 µM | TGI (UACC-257; five-dose, UACC-257): 100.0 µM | activity at 10 µM (U251; Homo sapiens, U-251, 10 μM, U251, CNS Cancer, read-out: Growth percentage): 41.9% | GI50 (U251; [4]): 34.7 µM | IC50 (U251; [4]): > 100 µM | CC50 (U251; Homo sapiens, U-251, five-dose, U251, read-out: LC50 (the source's name)): > 100 µM | TGI (U251; five-dose, U251): 100.0 µM | activity at 10 µM (HT29; Homo sapiens, HT-29, 10 μM, HT29, Colon Cancer, read-out: Growth percentage): 24.4% | GI50 (HT29; [5]): > 100 µM | IC50 (HT29; [5]): > 100 µM | CC50 (HT29; Homo sapiens, HT-29, five-dose, HT29, read-out: LC50 (the source's name)): > 100 µM | TGI (HT29; five-dose, HT29): 100.0 µM | Growth percentage (NCI-H322M; 10 μM, Non-Small-Cell Lung Cancer): 100.9% | GI50 (NCI-H322M; Homo sapiens, five-dose): > 100 µM | IC50 (NCI-H322M; Homo sapiens, five-dose): > 100 µM | LC50 (NCI-H322M; Homo sapiens, five-dose): > 100 µM | TGI (NCI-H322M; five-dose): 100.0 µM | Growth percentage (IGROV1; 10 μM, IGROV1, Ovarian Cancer): 73.9% | GI50 (IGROV1; [6]): > 100 µM | IC50 (IGROV1; [6]): > 100 µM | CC50 (IGROV1; Homo sapiens, IGROV-1, five-dose, IGROV1, read-out: LC50 (the source's name)): > 100 µM | TGI (IGROV1; five-dose, IGROV1): 100.0 µM | CC50 ([1]; Homo sapiens, read-out: LC50): 0.6 to 100 µM | activity at 10 µM ([1]; Homo sapiens, read-out: Mean growth percentage): 49.6% | Full-panel MG-MID ([1]; mean sensitivity across all cell lines in the panel): 70.3 µM | activity at 10 µM (CCRF-CEM; Homo sapiens, 10 μM, Leukemia, read-out: Growth percentage): 49.7% | GI50 (CCRF-CEM; Homo sapiens, five-dose): 6.9 µM | IC50 (CCRF-CEM; Homo sapiens, five-dose): 11.7 µM | CC50 (CCRF-CEM; [7]): > 100 µM | TGI (CCRF-CEM; five-dose): 31.6 µM | activity at 10 µM (NCI-H23; Homo sapiens, 10 μM, NCI-H23, Non-Small-Cell Lung Cancer, read-out: Growth percentage): 54% | GI50 (NCI-H23; [8]): > 100 µM | IC50 (NCI-H23; [8]): > 100 µM | LC50 (50% lethal concentration) (NCI-H23; [8]): > 100 µM | TGI (NCI-H23; five-dose, NCI-H23): 100.0 µM | GI50 (OVCAR-5; Homo sapiens): > 100 µM | IC50 (OVCAR-5; Homo sapiens): > 100 µM | CC50 (OVCAR-5; [2]): > 100 µM | TGI (OVCAR-5): 100.0 µM | activity at 10 µM (MCF7; Homo sapiens, MCF7, 10 μM, MCF7, Breast Cancer, read-out: Growth percentage): 6.5% | GI50 (MCF7; Homo sapiens, five-dose, MCF7): 0.4 µM | IC50 (MCF7; Homo sapiens, five-dose, MCF7): 0.6 µM | CC50 (MCF7; Homo sapiens, five-dose, MCF7, read-out: LC50 (the source's name)): > 100 µM | TGI (MCF7; five-dose, MCF7): 3.5 µM | activity at 10 µM (SK-MEL-28; Homo sapiens, 10 μM, SK-MEL-28, Melanoma, read-out: Growth percentage): 84.1% | GI50 (SK-MEL-28; [9]): 26.9 µM | IC50 (SK-MEL-28; [9]): 87.1 µM | CC50 (SK-MEL-28; Homo sapiens, five-dose, SK-MEL-28, read-out: LC50 (the source's name)): > 100 µM | TGI (SK-MEL-28; five-dose, SK-MEL-28): 100.0 µM | Growth percentage (MALME-3M; 10 μM, Melanoma): 143.6% | GI50 (MALME-3M; Homo sapiens, five-dose): > 100 µM | IC50 (MALME-3M; Homo sapiens, five-dose): > 100 µM | CC50 (MALME-3M; [7]): > 100 µM | TGI (MALME-3M; five-dose): 100.0 µM | activity at 10 µM (HOP-92; Homo sapiens, 10 μM, HOP-92, Non-Small-Cell Lung Cancer, read-out: Growth percentage): 101% | GI50 (HOP-92; [10]): 44.7 µM | IC50 (HOP-92; [10]): > 100 µM | LC50 (concentration killing 50% of cells) (HOP-92; [10]): > 100 µM | TGI (HOP-92; five-dose, HOP-92): 100.0 µM | activity at 10 µM (HS 578T; Homo sapiens, 10 μM, Breast Cancer, read-out: Growth percentage): 61.5% | GI50 (HS 578T; Homo sapiens, five-dose): 18.6 µM | IC50 (HS 578T; Homo sapiens, five-dose): 70.8 µM | CC50 (HS 578T; [7]): > 100 µM | TGI (HS 578T; five-dose): 75.9 µM
